Assay results from patent US20020155172A1, “Methods and compounds for decreasing cell toxicity or death” (priority 2000, published 2002).
Where a name gives a salt, the structure may show the parent alone. Read-outs that look alike come from different tables or passages of the source. Peptide text beside a SMILES is read from it. * marks the point of attachment. Cbz = O=C(OCc1ccccc1)*

How the values were obtained:
[1] = tested on: HeLa cells co-transfected with a luciferase construct together with Q79-GFP; test: Protein synthesis by luciferase activity in Q79 expressing HeLa cells; assay type: cell-based
[2] = tested on: HeLa cells transfected with a Q79-GFP construct; test: Polyglutamine-induced cell death in HeLa cells; assay type: cell-based; details: Q79-GFP, compound added six hours after transfection, 1 nM to 100 μM (FIG. 4A: 100 μM), seventy-two hours post-transfection
Description: FIG. 4A is two graphs showing the effect of Congo red, tetracyclines, and sulfated polyanions on polyglutamine-induced cell death in, each graph representing a separate experiment. HeLa cells transfected with a Q79-GFP construct were treated with 100 μM of minocycline (mino), Chrysamine G (CG), Rolitetracycline (Ro), iota carrageenan (iota), dextran 500 (dextran), or Congo red (CR), six hours after transfection. The amount of cell death was determined 48 hours after transfection by morphological criteria as previously described (Sanchez et al., supra).
In a cell expressing Q79-GFP polypeptides, polyglutamine aggregates are formed and the cell dies by apoptosis (Sanchez, supra). Cell viability was determined by morphological criteria characteristic of apoptosis, including cell blebbing, shrinking. Total cell lysates and tissue homogenates were obtained using Buffer A: 1% triton in PBS, containing 10 μg/ml DNAse and protease inhibitors; leupeptin 20 μg/ml, aprotinin 20 u/ml, and PMSF 100 mM. The proteins were separated by 12% SDS/PAGE and transferred to PVDF Immobilon membrane (Millipore, Inc). Antibodies used included rabbit polyclonal antibodies; EM48 (Li et al., Mol. Neurobiol. 20:111-124, 2000) anti-heat shock proteins 40 and 70 (Stressgen, Co.), and rat monoclonal anti-caspase-8 antibody.
These effects were determined by visual inspection of GFP-positive cells under an inverted fluorescence microscope. In addition, the occurrence of apoptosis of these transfected cell samples was confirmed by staining the cells with trypan blue, propidium iodide, or Hoescht 33342 to examine the cellular or nuclear morphology.
Compounds that disrupt other types of aggregates, for example, amyloid fibril aggregates were tested for their ability to disrupt pre-formed polyglutamine aggregates. HeLa Cells were transfected with a Q79-GFP construct. Six hours later, Iota-carrageenan, dextran, minocycline, rolitetracycline, and Chrysamine G (1 nM to 100 μM) were each incubated with the cells. Seventy-two hours post-transfection, the cells were evaluated for the occurrence of cell death, by visual inspection under an inverted fluorescence microscope.

GST-Q81 beads = test: Chemical absorption assay, Q81; assay type: binding; details: 25 μM of each (FIG. 6B)
Description: FIG. 6B is a graph of the percent of binding of various compounds to amyloid-like Q81 aggregates measured using a chemical absorption assay. The anti-amyloid compounds minocycline, Chrysamine G, Rolitetracycline, iota carrageenan, dextran 500 (dextran), or Congo red (25 μM of each) were pre-absorbed with Q81 GST recombinant protein and the percentage absorbance of the compound remaining in the supernatant after absorption with GST-Q81 beads is plotted on the y-axis.
To determine if Congo red and its derivatives directly bind to expanded polyglutamine aggregates, we designed a chemical absorption assay. This assay measures the remaining Congo red in the supernatant after incubating the supernatant with GST-tagged polyglutamine beads, and removing the GST-polyglutamine beads by centrifugation. This assay was carried out as follows. Recombinant protein GST-Q19, GST-Q62, and GST-Q81 (containing 19, 62, and 81 polyglutamines, respectively) was purified from E. coli by glutathione beads. After several washes with PBS containing protease inhibitors, the beads were allowed to settle to the bottom of the tube at 24° C. for 10 minutes. The polyglutamine-bound beads were aliquoted and diluted with two volumes of 10 μg/ml of Congo red in PBS. The beads were mixed and centrifuged at 15,000 rpm for 2 minutes and the supernatant was removed and diluted 1:100. The percentage absorbance of the compound remaining in the supernatant after absorption with the GST-polyQ beads was then detected. In addition, Congo red- or PBS-only treated polyglutamine polypeptide bead pellets were washed three times with 100 volumes of PBS and then the protein was separated by 12% polyacrylamide gels and immunoblotted as mentioned above. Some blots were used for immunostaining with anti-polyglutamine antibody (EM48). Other blots were left unstained to visualize the red color of Congo red that entered the gel along with the polyglutamine protein.
Binding of the above-identified compounds to amyloid-like Q81 aggregates was also assessed by a chemical absorption assay. The compounds indicated in FIG. 19 (25 μM of each) were pre-absorbed with a Q81 GST recombinant protein and the percentage absorbance of the compound remaining in the supernatant after absorption with GST-Q81 beads was then detected.

Q79-GFP aggregates = test: Decrease of pre-formed Q79-GFP aggregates in vitro; assay type: biochemical; details: 100 μM each; visually examined
Description: Q79-GFP was expressed and purified from bacteria using standard molecular biology techniques. These fusion proteins form aggregates in vitro which can be viewed under an inverted fluorescence microscope. The Q79-GFP aggregates were administered Congo red (1 nM to 100 μM) and the ability of Congo red to decrease the aggregate was visually assessed.
This assay was also carried out on Q79-GFP aggregates that were administered compounds known to disrupt other types of aggregates, for example, beta-amyloid fibril aggregates. The Q79-GFP aggregates were administered Iota-carrageenan, dextran, minocycline, rolitetracycline, or Chrysamine G Congo red (100 μM each), and visually examined for the effect of each compound on disruption of the aggregate, as well as the density and size of the aggregates.

cells; primary neurons = test: Compound toxicity in cells; assay type: cell-based
[3] = tested on: non-transfected HeLa cells; test: Total cellular protein degradation; assay type: cell-based; details: Congo red 100 μM, ZVAD 100 μM, MG132 10 μM; H3-tyrosine release, 0 to 180 minutes
Description: FIG. 8C is a graph of the effect of effect of Congo red, ZVAD, or the proteosome inhibitor MG132 on total cellular protein degradation in non-transfected HeLa cells.
To rule out the possibility that Congo red may have an effect on protein degradation in general, we tested the effect of Congo red on proteosome degradation. Rates of total cellular protein degradation experiments, from cells seeded in 12 well dishes at 2×10^4, treated with Congo red (100 μM), ZVAD (100 μM), or the proteosome inhibitor MG132 (10 μM) and labeled with 5 μCi/ml of H^3-tyrosine for 1 hour. One hundred microliter culture medium aliquots were collected at 0, 30, 60, 90, 120, and 180 minute time points, and the levels of H^3-tyrosine were determined using an LS6000 scintillation counter (Beckman, Co).

[4] = Q79 expressing HeLa cells, various concentrations

## neostigmine methyl ether
[1]; […], various concentrations
  protection against inhibition of protein synthesis (luciferase activity): found to protect against inhibition of protein synthesis

## N[C@@H]1CONC1=O [D-cycloserine]
[1]; [4]
  protection against inhibition of protein synthesis (luciferase activity): found to protect against inhibition of protein synthesis

## CN(C)c1ccc(O)c2c1C[C@H]1C[C@H]3[C@H](N(C)C)C(O)=C(C(N)=O)C(=O)[C@@]3(O)C(O)=C1C2=O [minocycline]
[2]
  Polyglutamine-induced Cell Death: +++ (Each + indicates approximately 20% cell death.)

## dextran
[2]
  Polyglutamine-induced Cell Death: +++ (Each + indicates approximately 20% cell death.)
GST-Q81 beads
  binding to 81-repeat polyglutamine polypeptide: binds to expanded polyglutamines
Q79-GFP aggregates
  dissolution or disruption of pre-formed expanded polyglutamine repeat aggregates: detected only after Congo red addition and daunomycin addition

## CCCCCCCCC(=O)NCc1ccc(O)c(OC)c1 [N-vanillylnonanmide]
[1]
  protection against inhibition of protein synthesis (luciferase activity): found to protect against inhibition of protein synthesis

## C[C@]12CCC(=O)C=C1CC[C@@H]1[C@@H]2[C@@H](O)C[C@@]2(C)[C@H]1CC[C@]2(O)C(=O)CO [hydrocortisone]
[1]; [4]
  protection against inhibition of protein synthesis (luciferase activity): found to protect against inhibition of protein synthesis

## Nc1ccc(/N=N/c2ccccc2)c(N)n1 [phenazopyridine]
[1]; [4]
  protection against inhibition of protein synthesis (luciferase activity): found to protect against inhibition of protein synthesis

## CN(C)[C@@H]1C(O)=C(C(=O)NCN2CCCC2)C(=O)[C@@]2(O)C(O)=C3C(=O)c4c(O)cccc4[C@@](C)(O)[C@H]3C[C@@H]12 [rolitetracycline]
[2]
  Polyglutamine-induced Cell Death: +++ (Each + indicates approximately 20% cell death.)

## Cn1cnc([N+](=O)[O-])c1Sc1ncnc2nc[nH]c12 [azathioprine]
[1]; [4]
  protection against inhibition of protein synthesis (luciferase activity): found to protect against inhibition of protein synthesis

## [O]=[Mg] [magnesium oxide]
[1]; […], various concentrations
  protection against inhibition of protein synthesis (luciferase activity): found to protect against inhibition of protein synthesis

## COc1cccc2c1C(=O)c1c(O)c3c(c(O)c1C2=O)C[C@@](O)(C(C)=O)C[C@@H]3O[C@H]1C[C@H](N)[C@H](O)[C@H](C)O1 [daunomycin, reference compound]
cells; primary neurons
  compound toxicity in cells: highly toxic to cells
Q79-GFP aggregates
  dissolution or disruption of pre-formed expanded polyglutamine repeat aggregates: dissolution or disruption of pre-formed expanded polyglutamine repeat aggregates were detected

## O=C(CCCN1CCC(O)(c2ccc(Cl)cc2)CC1)c1ccc(F)cc1 [haloperidol]
[1]; [4]
  protection against inhibition of protein synthesis (luciferase activity): found to protect against inhibition of protein synthesis

## O=C(O)c1cc(/N=N/c2ccc(-c3ccc(/N=N/c4ccc(O)c(C(=O)O)c4)cc3)cc2)ccc1O [Chrysamine G]
[2]
  Polyglutamine-induced Cell Death: +++ (Each + indicates approximately 20% cell death.)
GST-Q81 beads
  binding to 81-repeat polyglutamine polypeptide: binds to expanded polyglutamines
Q79-GFP aggregates
  dissolution or disruption of pre-formed expanded polyglutamine repeat aggregates: detected only after Congo red addition and daunomycin addition

## CC(C)C[C@@H](C=O)NC(=O)[C@H](CC(C)C)NC(=O)[C@H](CC(C)C)NC(=O)OCc1ccccc1 [MG132] (Cbz-Leu-Leu-Leu-aldehyde)
[3]
  general protein degradation: inhibited

## iota-carrageenan
[2]
  Polyglutamine-induced Cell Death: +++ (Each + indicates approximately 20% cell death.)
GST-Q81 beads
  binding to 81-repeat polyglutamine polypeptide: binds to expanded polyglutamines
Q79-GFP aggregates
  dissolution or disruption of pre-formed expanded polyglutamine repeat aggregates: detected only after Congo red addition and daunomycin addition

## CC(C)C[C@H]1C(=O)N2CCC[C@H]2[C@]2(O)O[C@](NC(=O)[C@@H]3C=C4c5cccc6[nH]c(Br)c(c56)C[C@H]4N(C)C3)(C(C)C)C(=O)N12 [bromocriptine mesylate]
[1]; […], various concentrations
  protection against inhibition of protein synthesis (luciferase activity): found to protect against inhibition of protein synthesis

## C[C@H]1C[C@@H]2[C@H]([C@@H](O)C[C@@]3(C)[C@H]2CC[C@]3(O)C(=O)COC(=O)CCC(=O)O)[C@@]2(C)C=CC(=O)C=C12 [6a-methylprednisolone 21-hemisuccinate]
[1]; [4]
  protection against inhibition of protein synthesis (luciferase activity): found to protect against inhibition of protein synthesis

## COc1ccc2cc(CCC(C)=O)ccc2c1 [nabumetone]
[1]; [4]
  protection against inhibition of protein synthesis (luciferase activity): found to protect against inhibition of protein synthesis

## CCC1(c2ccccc2)C(=O)NCNC1=O [primidone]
[1]; [4]
  protection against inhibition of protein synthesis (luciferase activity): found to protect against inhibition of protein synthesis

## R-(−)-deprenyl hydrochloride
[1]; […], various concentrations
  protection against inhibition of protein synthesis (luciferase activity): found to protect against inhibition of protein synthesis

## C[C@H]1O[C@@H](O[C@H]2[C@@H](O)C[C@H](O[C@H]3[C@@H](O)C[C@H](O[C@H]4CC[C@@]5(C)[C@H](CC[C@@H]6[C@@H]5C[C@@H](O)[C@]5(C)[C@@H](C7=CC(=O)OC7)CC[C@]65O)C4)O[C@@H]3C)O[C@@H]2C)C[C@H](O)[C@@H]1O [digoxin]
[1]; […], various concentrations
  protection against inhibition of protein synthesis (luciferase activity): found to protect against inhibition of protein synthesis
